Data published in US20240251792A1, “WEED CONTROL METHOD” (SYNGENTA CROP PROTECTION AG, priority 2021, published 2024).
Read-outs that look alike come from different tables or passages of the source.

Experiments:
Type in all cases: in vivo
[1] = test system: AMAPA; assay: Pre-emergence biological efficacy (Table 3); settings: 312 h, after 13 days, read-out: evaluation (100=total damage to plant; 0=no damage to plant)
Outline: (§1)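 Seeds were sown in standard soil in pots, kept one day in a glasshouse (24/19 °C day/night, 16 h light), then sprayed with an aqueous dilution in 0.2% Genapol X080 of a 50 g/l stock in acetone/AMA emulsifier mix. Damage was scored visually after 13 days (0 = none, 100 = total).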

[2] = test system: SETFA; assay: Pre-emergence biological efficacy (Table 3); settings: Setaria faberi, 312 h, after 13 days, read-out: evaluation (100=total damage to plant; 0=no damage to plant)
Outline: as §1

[3] = test system: ZEAMX; assay: Pre-emergence biological efficacy (Table 3); settings: 312 h, after 13 days, read-out: evaluation (100=total damage to plant; 0=no damage to plant)
Outline: as §1

[4] = test system: ECHCG; assay: Pre-emergence biological efficacy (Table 3); settings: Echinochloa crus-galli, 312 h, after 13 days, read-out: evaluation (100=total damage to plant; 0=no damage to plant)
Outline: as §1

[5] = test system: IPOHE; assay: Pre-emergence biological efficacy (Table 3); settings: Ipomoea hederacea, 312 h, after 13 days, read-out: evaluation (100=total damage to plant; 0=no damage to plant)
Outline: as §1

[6] = test system: AMARE; assay: Pre-emergence biological efficacy (Table 3); settings: Amaranthus retroflexus, 312 h, after 13 days, read-out: evaluation (100=total damage to plant; 0=no damage to plant)
Outline: as §1

[7] = test system: weeds and/or crops; assay: Post-emergence biological efficacy (Table 4); settings: 312 h, evaluated after 13 days
Outline: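 Scores are visual damage (0 = none, 100 = total), read 13 days after treatment at 24/18 °C with 15 h light. Plants had been sown in standard soil and grown 14 days before a spray of compound in F50/acetone, diluted with 0.2% Genapol X080.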

[8] = AMAPA, read-out: damage to plant AMAPA (100=total damage; 0=no damage)
[9] = ZEAMX, read-out: damage to plant ZEAMX (100=total damage; 0=no damage)
[10] = Amaranthus retroflexus, AMARE, read-out: damage to plant AMARE (100=total damage; 0=no damage)
[11] = Echinochloa crus-galli, ECHCG, read-out: damage to plant ECHCG (100=total damage; 0=no damage)
[12] = Ipomoea hederacea, IPOHE, read-out: damage to plant IPOHE (100=total damage; 0=no damage)
[13] = Setaria faberi, SETFA, read-out: damage to plant SETFA (100=total damage; 0=no damage)

Row | SMILES | pest or weed control at 1000 g/ha [1] | pest or weed control at 1000 g/ha [2] | plant injury at 1000 g/ha [3] | pest or weed control at 1000 g/ha [4] | pest or weed control at 1000 g/ha [5] | pest or weed control at 1000 g/ha [6] | pest or weed control at 1000 g/ha [7, 8] | pest or weed control at 1000 g/ha [7, 9] | pest or weed control at 1000 g/ha [7, 10] | pest or weed control at 1000 g/ha [7, 11] | pest or weed control at 1000 g/ha [7, 12] | pest or weed control at 1000 g/ha [7, 13] | other results
1 | COc1c(F)ccc(C(F)(F)C(=O)O)c1F [Compound 1-458, 2-(2,4-Difluoro-3-methoxy-phenyl)-2,2-difluoro-acetic acid] | 90% | 0% | 20% | 0% | 80% | 90% | 90% | 40% | 90% | 90% | 70% | 90% | 
2 | COc1cccc(C(F)(F)C(=O)O)c1F [Compound 1-190, 2,2-Difluoro-2-(2-fluoro-3-methoxy-phenyl)acetic acid] | 80% | 20% | 0% | 0% | 90% | 80% | 80% | 10% | 90% | 40% | 60% | 20% | 
3 | O=C(O)C(F)(F)c1ccccc1OC(F)(F)F [Compound 1-465, 2,2-Difluoro-2-[2-(trifluoromethoxy)phenyl]acetic acid] | 70% | 20% | 20% | 20% | 20% | 70% | 80% | 20% | 80% | 60% | 70% | 30% | 
4 | O=C(O)C(F)(F)c1cccc(Cl)c1C1CC1 [Compound 1-428, 2-(3-Chloro-2-cyclopropyl-phenyl)-2,2-difluoro-acetic acid] | 90% | 0% | 0% | 0% | 80% | 80% | 90% | 10% | 90% | 10% | 90% | 0% | 
5 | O=C(O)C(F)(F)c1cccc2c1CCO2 [Compound 1-420, 2-(2,3-Dihydrobenzofuran-4-yl)-2,2-difluoro-acetic acid] | 60% | 0% | 10% | 0% | 70% | 80% | 70% | 10% | 80% | 10% | 70% | 10% | 
6 | COc1ccc(C(F)(F)C(=O)O)c([N+](=O)[O-])c1F [Compound 1-461, 2,2-Difluoro-2-(3-fluoro-4-methoxy-2-nitro-phenyl)acetic acid] | 30% | 30% | 10% | 0% | 20% | 40% | 80% | 0% | 80% | 10% | 20% | 30% | 
7 | N#Cc1cccc(C(F)(F)C(=O)O)c1F [Compound 1-192, 2-(3-Cyano-2-fluoro-phenyl)-2,2-difluoro-acetic acid] | 70% | 50% | 0% | 0% | 70% | 80% | 80% | 20% | 80% | 30% | 70% | 60% | 
8 | O=C(O)C(F)(F)c1ccc(OC(F)(F)F)cc1Cl [Compound 1-59, 2-[2-Chloro-4-(trifluoromethoxy)phenyl]-2,2-difluoro-acetic acid] |  |  |  |  |  |  |  |  |  |  |  |  | pest or weed control at 250 g/ha ([1]; 250 g/ha): 20%; pest or weed control at 250 g/ha ([2]; 250 g/ha): 10%; plant injury at 250 g/ha ([3]; 250 g/ha): 0%; pest or weed control at 250 g/ha ([4]; 250 g/ha): 0%; pest or weed control at 250 g/ha ([5]; 250 g/ha): 10%; pest or weed control at 250 g/ha ([6]; 250 g/ha): 20%; pest or weed control at 250 g/ha [7, 8]: 60%; pest or weed control at 250 g/ha [7, 9]: 0%; pest or weed control at 250 g/ha [7, 10]: 60%; pest or weed control at 250 g/ha [7, 11]: 0%; pest or weed control at 250 g/ha [7, 12]: 40%; pest or weed control at 250 g/ha [7, 13]: 10%
9 | N#Cc1c(F)ccc(C(F)(F)C(=O)O)c1Cl [Compound 1-460, 2-(2-Chloro-3-cyano-4-fluoro-phenyl)-2,2-difluoro-acetic acid] | 90% | 10% | 10% | 0% | 70% | 80% | 90% | 10% | 90% | 20% | 60% | 40% | 
10 | N#Cc1c(F)cccc1C(F)(F)C(=O)O [Compound 1-261, 2-(2-Cyano-3-fluoro-phenyl)-2,2-difluoro-acetic acid] | 50% | 10% | 0% | 10% | 40% | 40% | 70% | 20% | 70% | 0% | 40% | 30% | 
11 | COc1cccc(C(F)(F)C(=O)O)c1C [Compound 1-242, 2,2-Difluoro-2-(3-methoxy-2-methyl-phenyl)acetic acid] | 70% | 10% | 10% | 0% | 60% | 70% | 80% | 10% | 80% | 10% | 70% | 10% | 
12 | Cc1c(C#N)cccc1C(F)(F)C(=O)O [Compound 1-244, 2-(3-Cyano-2-methyl-phenyl)-2,2-difluoro-acetic acid] | 80% | 90% | 40% | 50% | 90% | 90% | 90% | 60% | 90% | 60% | 70% | 70% | 
